From US20060229261A1 (priority 2005, published 2006)

Legend:
[1] = tested on: patients with functional constipation; test: Randomized, dose escalation, placebo controlled clinical study; format: in vivo, human; conditions: daily diaries, dose escalation phase (25, 50, 100 mg once daily)
Source text: A randomized, dose escalation, placebo controlled study is designed to assess the efficacy of the administered formulation in 60 to 120 patients with functional constipation, defined using the Rome II criteria (modified), i.e., at least […] of two or more of the following symptoms: • i. Straining in >25% of defecations; • ii. Lumpy or hard stools in >25% of defecations; • iii. Sensation of incomplete evacuation in >25% of defecations; • iv. Sensation of anorectal obstruction/blockage in >25% of defecations; • v. Manual maneuvers to facilitate >25%, of defecations (e.g. digital evacuation, support of pelvic floor); and/or • vi. <3 evacuations per week. In addition, loose stools are not present, and there are insufficient criteria for a diagnosis of IBS. Moreover, these patients have no evidence of medical disorders that may cause constipation. Patients are symptomatic on entry in the randomization phase of the study, i.e., in the 8-14 day run-in period, on at least 8 days, which need not be consecutive, patients have lumpy or hard stools in >25% of defecations.
Patients are randomized to one of three groups:
Patients randomized to receive treatments a) or b) will receive 25 mg once daily for the first four weeks, 50 mg once daily for the following four weeks and 100 mg once daily for a further four weeks, providing the previous dose was well tolerated. […]

[2] = tested on: women patients with IBS-C; conditions: 6 mg twice daily; cited from earlier work
[3] = primarily as inactive metabolites; cited from earlier work
[4] = tested on: patients with chronic constipation; conditions: two trials versus placebo; cited from earlier work

CN(C)C(=N)N=C(N)N [metformin]
patient's global impression: answer 'yes' to "do you feel better now after treatment" [1]: at least 50 % of the time

CCCCCNC(=N)N/N=C/c1c[nH]c2ccc(OC)cc12.O=C(O)/C=C\C(=O)O [tegaserod, 3-(5-methoxy-1H-indol-3-ylmethylene)-N-pentylcarbazimidamide hydrogen maleate]
global and individual symptoms [2]: effectively improves global and individual symptoms

C[C@H]1O[C@H](O[C@H]2[C@H](O)[C@@H](O)[C@@H](O[C@H]3[C@H](O)[C@@H](O)C(O)O[C@@H]3CO)O[C@@H]2CO)[C@H](O)[C@@H](O)[C@@H]1N[C@H]1C=C(CO)[C@@H](O)[C@H](O)[C@H]1O (stereo partly shown) [acarbose]
oral dose absorbed [3]: About 35%

OC[C@H]1O[C@@H](O[C@@H]2[C@@H](CO)OC(O)(CO)[C@H]2O)[C@H](O)[C@@H](O)[C@H]1O (mixture of isomers) [lactulose]
stool frequency and consistency [4]: more effective than placebo
